# According to patent US9403843B2, “Cysteine protease inhibitors and uses thereof” (The Trustees of Columbia University in the City of New York, priority 2012, dated 2016):
# Where two headings read alike, the source gives them in different places.
# What was measured:
# [1] = test system: primary neurons; experiment: LD50 in primary neurons; format: cell-based; conditions: YES = LD50 ≧ 50 μM in primary neurons
# [2] = target: T1, full-length human Cal1 (Homo sapiens (Human), UniProt P07384); experiment: Calpain inhibition FRET assay; format: biochemical; conditions: Table 3, 20 min incubation, FRET substrate
# T1 sequence (P07384 whole entry): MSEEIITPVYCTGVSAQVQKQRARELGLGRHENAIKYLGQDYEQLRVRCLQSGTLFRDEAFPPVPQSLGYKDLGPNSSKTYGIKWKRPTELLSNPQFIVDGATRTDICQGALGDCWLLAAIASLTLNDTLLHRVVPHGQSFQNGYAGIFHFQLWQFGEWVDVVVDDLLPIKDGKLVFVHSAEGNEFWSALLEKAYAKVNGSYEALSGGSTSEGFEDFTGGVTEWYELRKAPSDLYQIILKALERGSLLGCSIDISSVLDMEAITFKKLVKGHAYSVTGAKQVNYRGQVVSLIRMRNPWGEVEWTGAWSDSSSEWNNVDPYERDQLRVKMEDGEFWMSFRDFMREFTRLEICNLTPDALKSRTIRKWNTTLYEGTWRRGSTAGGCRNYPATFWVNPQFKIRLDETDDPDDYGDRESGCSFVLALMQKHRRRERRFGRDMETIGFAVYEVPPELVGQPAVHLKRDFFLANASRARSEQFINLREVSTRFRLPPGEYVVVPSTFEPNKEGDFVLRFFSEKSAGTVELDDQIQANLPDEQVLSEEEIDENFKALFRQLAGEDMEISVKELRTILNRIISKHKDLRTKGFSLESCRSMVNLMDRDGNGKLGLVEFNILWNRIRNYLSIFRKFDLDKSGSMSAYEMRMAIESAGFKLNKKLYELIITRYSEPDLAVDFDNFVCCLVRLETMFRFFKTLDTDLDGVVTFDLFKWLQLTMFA
# T1 sequence (P04632 whole entry partner): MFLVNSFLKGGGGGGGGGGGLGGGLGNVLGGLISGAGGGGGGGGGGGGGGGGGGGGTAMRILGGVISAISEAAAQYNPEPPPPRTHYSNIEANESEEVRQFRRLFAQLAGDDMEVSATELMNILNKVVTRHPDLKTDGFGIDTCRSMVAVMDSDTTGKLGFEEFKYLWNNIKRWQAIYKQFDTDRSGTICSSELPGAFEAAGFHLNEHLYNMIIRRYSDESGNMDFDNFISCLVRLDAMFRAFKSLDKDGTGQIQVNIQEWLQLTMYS
# [3] = target: T1, full-length human Cal1; experiment: Calpain inhibition FRET assay; format: biochemical
# Procedure: Calpain activity was measured using full-length human Cal1 in the presence of a FRET substrate. IC50 values were approximated by co-incubation of varying concentrations of the appropriate inhibitor (10, 100, 500, 1000 nM) in the presence of the FRET substrate (DABCYL)TPLK-SPPSPR-(EDANS) (SEQ ID NO: 5) and activation buffer. […] A peptide inhibitor, Z-LLY-FMK (SEQ ID NO: 6), was used as a positive control.
# The Calbiochem InnoZyme activity kit was used for measuring the inhibition effect inhibitors on human erythrocyte calpain 1 activity. […] 20 μM of the FRET substrate, 10 nM of native Cal1, and 20 μM TCEP (reducing agent) were added to the reaction mixture containing assay buffer (Tris [10 mM], NaCl [100 mM], pH 7.4). Cal1 was activated by the addition of 10 μM calcium. Cleavage of the scissile bond amide bond, K-S, releases the fluorophore (EDANS) from the internal quenching molecule (DABCYL), resulting in an increase in fluorescence measured at 320 nm excitation and 480 nm emission wave lengths for 30 min. Each inhibitor was added to the reaction mixture at varying concentrations (10 nM, 100 nM, 1 μM, and 10 μM) to detect inhibition of Cal1 and reduction in fluorescence was measured by 96 well-plate reader. Approximate IC50 values of each compound were generated using linear regression within Graphpad Prism Software.
# [4] = test system: Cal I; experiment: Relative selectivity for Cal I (E64 = 1.0), Table 2; format: biochemical; conditions: relative to E64 = 1.0
# [5] = test system: Cal1cat vs CathB; experiment: Competition assay for Cal1 vs CathB using the biotinylated epoxide probe; format: binding, rat
# Procedure: Anti-biotin western blotting of Cal1cat (Lane 6) or CathB (Lane 7) after incubation with 27 show the expected immunoreactivity of the covalently modified proteins. […] Densitometric analysis, using means from triplicate immunoblots, was used to estimate the modification of each protein by 27 in the presence of inhibitors relative to control (Lane 1: ratio=1.0).
# Cal1cat was used in place of the full length enzyme to avoid autocatalysis.
# Cal1cat and CathB were pre-treated with inhibitors for 10 min, followed by a 20 min incubation with the biotinylated epoxide, 27, as illustrated in FIG. 4. […] A more quantitative estimate of selectivity was achieved by comparison of band intensities.
# The appropriate inhibitor (5 μM) was pre-incubated in a mixture containing Cal1cat (2 μM), CathB (2 μM), TCEP (1 mM), and Ca^2+ (30 μM) for 10 min at 37° C. […] (5 μM) was then added and the mixture incubated an additional 20 min. The reaction was quenched with EDTA (10 μM) and samples were ran using 4-16% SDS PAGE gel, subsequently transferred to PVDF membrane and visualized by Pierce ECL (Enhanced chemiluminescent) western blotting substrate, intensity of each blot was calculated using densitometry software. Relative inhibition of each enzyme was calculated with respect to enzyme activity in the absence of inhibitor. Inhibitor preference to Cal1cat with respect to CathB, was calculated by dividing relative Cal1cat inhibition with relative CathB inhibition of that particular inhibitor.
# [6] = Plasma pharmacokinetics after i.p. administration; format: in vivo; conditions: ICR mice; for time of peak plasma concentration: i.p., 30a 7.57, 33 7.86, 50 7.83 mg/kg; for half-life / bioavailability: mouse, ip, plasma; for bioavailability: after i.p. administration, read-out: absolute bioavailability
# Procedure: Plasma concentrations of 30a, 33 and 50 were determined by LC-MS/MS after i.p. administration to ICR mice. The plasma concentrations at each sampling time are shown on FIG. 10. […] Indeed, following i.p. administration of 30a (7.57 mg/kg), 33 (7.86 mg/kg) and 50 (7.83 mg/kg), the peak plasma concentration occurred at 0.25, 0.5 and 0.125 h after dosing, respectively. […] The respective half-lives were ˜0.6 hrs, ˜1.1 hrs and ˜0.6 hrs.
# [7] = test system: calpain-generated spectrin fragments; experiment: Spectrin proteolytic degradation products in hippocampi, western blot; format: in vivo; conditions: for prevention of spectrin cleavage by calpains in hippocampi: i.p. treatment for 12 days, doses as for PK
# Procedure: Studies were performed to determine capability of lowering levels of spectrin proteolytic degradation products in hippocampi from adult animals. Using western blot analysis, prevention of calpain-generated spectrin fragments was checked following i.p. treatment for 12 days with 30a, 33 and 50 at the same concentrations used for PK assessment. The array of vehicle samples was obtained by loading samples with 5, 10, 15, and 20 μg total protein/lane. Samples from compound treated animals were loaded at 15 μg/lane.
# [8] = Acute and chronic toxicity, maximum tolerated dose; format: in vivo; conditions: mice; for MTD: mouse, in vivo, no malaise or death
# From the text: For evaluation of acute and chronic toxicity we measured the maximum tolerated dose (MTD) in mice for 30a, 33 and 50.
# [9] = test system: APP/PS1 mice; experiment: Behavioral rescue assays (contextual fear memory, 2-day RAWM reference memory); format: in vivo
# From the text: APP/PS1-vehicle: n=15; APP/PS1-67: n=6; APP/PS1-30a: n=10; WT-vehicle: n=15; WT-67=5; WT-30a: n=8, APP/PS1-33: n=11; WT-33: n=8, APP/PS1-50: n=10; WT-50: n=8. P<0.05 in all transgenic groups treated with compound compared to their respective vehicle-treated transgenics.
# APP/PS1-vehicle: n=17; APP/PS1-67: n=9; APP/PS1-30a: n=10; WT-vehicle: n=18; WT-67=9; WT-30a: n=9, APP/PS1-33: n=10; WT-33: n=9, APP/PS1-50: n=11; WT-50: n=9.
# The ability of compounds to rescue the defects in associative and reference memory in 3 month old APP/PS1 animals was assessed. Capability of ameliorating the defects in contextual fear memory was tested via i.p. administration (FIG. 12). In the 2-day RAWM test, daily injections of the 67, 30a, 33 and 50 from the 2nd month of age were beneficial against the loss of contextual fear memory and reference memory.
# Impact of chronic treatment on against memory loss in older APP/PS1 mice (7 months of age) with a more severe plaque load was also investigated. Compounds 67, 33 and 50 were beneficial against memory impairment following chronic administration (FIG. 13).
# The ability of a prodrug to rescue the defects in associative and reference memory in 3 month old APP/PS1 animals was assessed. […] Thus, the esterification seems to improve PK but it spoils PD parameters. Compound 89 ameliorates both LTP and memory in 3 month old APP/PS1 mice (FIG. 15). Daily treatment with 89 from the age of 2 months until 3 months ameliorated the defect in LTP (A) contextual fear memory (B) and reference memory (C) in APP/PS1 mice. n=10 for all groups. P<0.05 in transgenics treated with compound compared to their respective vehicle-treated transgenics.
# [10] = test system: Aβ-induced LTP impairment; experiment: LTP rescue test; conditions: assessed at 650 nM
# Procedure: Residual levels of potentiation were averaged during the last 5 min of LTP.
# [11] = target: papain (Carica papaya (Papaya), UniProt P00784); experiment: biochemical; format: biochemical
# Chain of papain (P00784 134-345): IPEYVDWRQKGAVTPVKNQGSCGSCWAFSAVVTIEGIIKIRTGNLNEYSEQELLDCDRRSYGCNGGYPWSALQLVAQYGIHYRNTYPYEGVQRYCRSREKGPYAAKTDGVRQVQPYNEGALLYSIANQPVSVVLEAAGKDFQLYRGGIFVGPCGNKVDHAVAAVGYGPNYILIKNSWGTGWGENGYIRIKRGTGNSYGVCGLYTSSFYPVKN
# From the text: (§1) Papain is representative of a family of typically lysosomal or secreted cysteine proteases, including the human cathepsins (B, C, F, H, K, L1-2, O, S, W, Z). […] Several methods have been reported in the literature for detailed kinetic analysis of the irreversible inhibition of cysteine proteases, including Cal1. […] (SEQ ID NO: 8). Using this substrate, kinetic parameters were derived using the method of Davies and co-workers, whereby “progress curves” were initially obtained measuring product formation as a function of time and fitted to y=P∞*(1−e^(−k*x)) (FIG. 7) (Cuerrier, D. et al., J Biol Chem 2007, 282, 9600-11; herein incorporated by reference in its entirety). […] Kinetic parameters (ki, KI, ki/KI) were obtained from double reciprocal plots (FIG. 7).
# (§2) Full length porcine calpain (156 nM), or papain (236 pM) was added to a solution of 100 mM NaCl, 50 mM HEPES, pH 7.6, 1 mM TCEP, 30 μM Suc-LLVY-AMC (SEQ ID NO: 8) substrate, and inhibitor (0.5 to 50 μM). Calpain reactions also contained CaCl2 (1 mM and 100 mM for porcine and rat respectively). Both substrate and inhibitors were dissolved in acetonitrile/DMSO (1:1) with the exception of E-64, dissolved in water. Organic solvent remained <2% in all reactions, and most often <1%. Reactions were carried out in microtiter 96-well plates, with 150 μL per well, 30° C., and product formation was monitored over time by fluorescence (Ex/Em 346/444 nm, with 420 nm cutoff filter). Kinetic values of kobs were determined via non-linear regression using one-phase association analysis and linear plots of 1/kobs vs. 1/[I] provided kinetic constants ki and KI.
# [12] = target: Full length porcine calpain (Sus scrofa (Pig), UniProt P35750); experiment: Calpain inhibition kinetics studies (Suc-LLVY-AMC substrate); format: biochemical
# Chain of Full length porcine calpain (P35750 whole entry): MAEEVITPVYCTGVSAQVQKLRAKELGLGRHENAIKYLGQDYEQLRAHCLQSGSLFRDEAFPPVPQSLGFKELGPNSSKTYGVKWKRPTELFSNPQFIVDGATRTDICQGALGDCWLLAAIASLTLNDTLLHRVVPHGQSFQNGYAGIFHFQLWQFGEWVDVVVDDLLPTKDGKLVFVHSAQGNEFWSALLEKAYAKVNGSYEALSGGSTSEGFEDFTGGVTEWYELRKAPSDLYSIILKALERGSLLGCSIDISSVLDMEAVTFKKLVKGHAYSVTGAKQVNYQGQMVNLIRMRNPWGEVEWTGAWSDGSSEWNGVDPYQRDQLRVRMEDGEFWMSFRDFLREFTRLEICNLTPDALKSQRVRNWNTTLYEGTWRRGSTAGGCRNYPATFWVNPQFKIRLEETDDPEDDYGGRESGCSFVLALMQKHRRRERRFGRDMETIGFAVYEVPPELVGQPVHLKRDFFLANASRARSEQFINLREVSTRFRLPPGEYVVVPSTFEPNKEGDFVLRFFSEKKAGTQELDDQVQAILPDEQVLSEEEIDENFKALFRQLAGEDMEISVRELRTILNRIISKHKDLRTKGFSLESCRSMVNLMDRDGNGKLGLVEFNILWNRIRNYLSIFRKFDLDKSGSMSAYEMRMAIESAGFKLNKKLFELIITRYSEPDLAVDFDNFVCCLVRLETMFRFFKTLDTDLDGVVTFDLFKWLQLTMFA
# Chain of Full length porcine calpain (P04574 whole entry partner): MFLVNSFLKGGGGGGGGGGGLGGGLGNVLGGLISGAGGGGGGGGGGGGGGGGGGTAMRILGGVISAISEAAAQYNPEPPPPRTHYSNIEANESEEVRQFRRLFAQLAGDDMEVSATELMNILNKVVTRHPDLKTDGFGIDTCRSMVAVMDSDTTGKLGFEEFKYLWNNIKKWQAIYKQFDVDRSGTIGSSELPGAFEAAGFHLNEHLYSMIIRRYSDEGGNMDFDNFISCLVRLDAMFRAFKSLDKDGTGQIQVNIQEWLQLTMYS
# From the text: as §1, §2
# [13] = Table 2, approximate IC50, read-out: Cal I IC50
# [14] = 3 month old APP/PS1 mice, 2-day RAWM, daily from 2 months
# [15] = 3 month old APP/PS1 mice, daily i.p. from 2 months
# [16] = APP/PS1 mice, daily treatment from 2 until 7 months
# [17] = ki/Ki calculated relative to E-64
# [18] = mean ± S.D. of triplicate experiments
Compound,LD50 ≧ 50 μM primary neurons [1],IC50 [2],"IC50 [3, 13]",Relative selectivity for Cal I E64 = 1.0 [4],time of peak plasma concentration [6],half-life [6],bioavailability [6],prevention of spectrin cleavage by calpains in hippocampi [7],MTD [8],"reference memory [9, 14]","contextual fear memory [9, 15]","contextual fear memory [9, 16]","reference memory [9, 16]",also measured
"CC(C)C[C@H](NC(=O)[C@H]1O[C@@H]1C(=O)O)C(=O)NCCCCNS(=O)(=O)c1ccc(F)cc1 [Compound 25, (2S,3S)-3-((S)-1-(4-(4-fluorophenylsulfonamido)butylamino)-4-methyl-1-oxopentan-2-ylcarbamoyl)oxirane-2-carboxylic acid]",YES,150 nM,100 nM,0.9,,,,,,,,,,
"CC(C)C[C@H](NC(=O)[C@H]1O[C@@H]1C(=O)O)C(=O)NCCCCNC(=O)CCCCC1CCSS1 (stereo partly drawn) [Compound 26, (2S,3S)-3-((2S)-1-(4-(5-(1,2-dithiolan-3-yl)pentanamido)butylamino)-4-methyl-1-oxopentan-2-ylcarbamoyl)oxirane-2-carboxylic acid]",YES,100 nM,150 nM,1.6,,,,,,,,,,
"O=C(Nc1nc(-c2ccc(F)cc2)cs1)C(Cc1cnc[nH]1)NC(=O)[C@H]1O[C@@H]1C(=O)O (stereo partly drawn) [Compound 30a, (2S,3S)-3-(1-(4-(4-fluorophenyl)thiazol-2-ylamino)-3-(1H-imidazol-4-yl)-1-oxopropan-2-ylcarbamoyl)oxirane-2-carboxylic acid]",,,100 nM,,0.25 h,~36 min,80.4%,less efficient at preventing the spectrin cleavage,100 mg/kg,beneficial,beneficial,ameliorated,ameliorated,"IC50 ([3]; Cal1, values stated in text, read-out: IC50): ~100 nM; blocking of active site modification by probe 27 (western blot signal) ([5]; 10 min pre-treatment, then 20 min with 27): little change in the CathB signal; selectivity for Cal1cat (ratio of Cal1cat versus CathB band intensities) ([5]; ratio for probe 27 alone set as 1.0, inhibitor 5 μM): highest selectivity; chronic toxicity, histopathology ([8]; chronic treatment at MTD): nephrotoxicity was noticed"
"O=C(NCc1cn(-c2ccc(F)cc2)nn1)[C@H](Cc1cscn1)NC(=O)[C@H]1O[C@@H]1C(=O)O [Compound 50, (2S,3S)-3-((S)-1-((1-(4-fluorophenyl)-1H-1,2,3-triazol-4-yl)methylamino)-1-oxo-3-(thiazol-4-yl)propan-2-ylcarbamoyl)oxirane-2-carboxylic acid]",,100 nM,125 nM,,0.125 h,~36 min,41.3%,dramatically reduced the amount of fragments,200 mg/kg,beneficial,beneficial,ameliorated,ameliorated,"potency for LTP rescue compared with E64 [10]: surpassed E64; Cal1 inhibition (in words) [3]: potent activity; Ki ([11]; apparent equilibrium constant, read-out: K1 Papain): 19200 nM; ki Papain ([11]; inhibition rate): 12.7 s⁻¹; rel Papain [11, 17]: 0.12; 10^−5 × ki/Ki Papain [11, 18]: 6.62 ± 0.74; brain penetration ([7]; inferred from hippocampal spectrin cleavage): capable of effectively penetrating the brain; Relative Selectivity ([12]; Cal1 over papain, ki/Ki relative to E-64 set at 1.0): 9.3; Ki ([12]; apparent equilibrium constant, full length Cal1, read-out: K1 Calpain1): 2900 nM; ki Calpain1 ([12]; inhibition rate, full length Cal1): 0.10 s⁻¹; relative selectivity for inhibition of Cal1 over papain (in words) ([12]; ki/Ki as measure, compared with E-64): Cal1 selectivity; rel Calpain1 [12, 17]: 1.1; 10^−4 × ki/Ki Calpain1 [12, 18]: 3.31 ± 0.32; memory impairment ([9]; 7 month old APP/PS1 mice, chronic administration): beneficial"
CC(=O)NCCCCNC(=O)[C@H](CC(C)C)NC(=O)C1OC1c1ccccc1 (some centres unmarked) [Compound 61],YES,,~1000 nM,0.3,,,,,,,,,,
